One data set has as its system A-549 (lung cancer). In words: Chou and Talalay combination assay with beta-caryophyllene. The settings on record: anticancer drug in combination with beta-caryophyllene; Chou and Talalay CI; 48 h. Type of data set: cell-based, human. The procedure, abridged: (§1)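 Tumor cells were exposed for 48 h at 37 °C to increasing concentrations of anticancer agents with and/or without beta-caryophyllene, solvent below 0.5%. Combination indices were derived by the Chou–Talalay method (CI<1 potentiation, =1 additive, >1 antagonism).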

Another data set has as its system PA-1 (ovary cancer). Described as above. Type of data set: cell-based, human. The settings on record: anticancer drug in combination with beta-caryophyllene; Chou and Talalay CI; 48 h. The procedure, abridged:
as §1

For data set [1], the system named is MDA-MB-231 (breast cancer). Described as above. Type of data set: cell-based, human. The settings on record: anticancer drug in combination with beta-caryophyllene; Chou and Talalay CI; 48 h. A digest of the protocol: as §1
In another data set the test system is DLD-1 (colon cancer). The data set is described as above. Type of data set: cell-based, human. The settings on record: anticancer drug in combination with beta-caryophyllene; Chou and Talalay CI; 48 h. The procedure, abridged:
as §1

A further data set deals with MCF-7 (breast cancer). The description is as above. Type of data set: cell-based, human. The settings on record: anticancer drug in combination with beta-caryophyllene; Chou and Talalay CI; 48 h. The procedure, abridged: as §1
Data set [2] concerns Panc 05.04 (pancreas cancer). The data set is described as above. Type of data set: cell-based, Human. The settings on record: in combination with beta-caryophyllene in ethanol (40-150 mM), 48 h. The procedure:
Agent: […] Each solution was prepared fresh and use within 1 hour after preparation. 5 μL of each test article were added to 1 mL of culture medium for a final concentration of 0.5% of solvent and this concentration have no toxic effect on cells. Cells: The Panc 05.04 cell line was used. Cells were harvested using trypsine-EDTA. […] Cells were plated in 96-well microplates (BD Falcon) at a density of 7.5×10^3 cells per well for Chou and Talalay assay in 100 μL of culture medium and were allowed to adhere for 24 hours before treatment. Proliferation assay: Increasing concentrations of the anticancer agents and/or beta-caryophyllene were added to 96-well plate (100 μL per well). The final concentration of solvent in the culture medium was maintained below 0.5% (volume/volume) to avoid solvent toxicity. […] The cells were incubated for 48 h at 37° C. and 5% CO2. Cytotoxicity was assessed using the resazurin reduction test (8). […] Resazurin was then removed. Data analysis: Results were analyzed using the Chou and Talalay method (9) and may be interpreted as follow: […]

The subject of data set [3] is U-251 (human glioblastoma). The data set is described as above. Type of data set: cell-based. The settings on record: anticancer drug in combination with beta-caryophyllene; Chou and Talalay CI; 48 h. A digest of the protocol: as §1
The subject of data set [4] is GL-261 (murine glioblastoma). Described as above. Type of data set: cell-based. The settings on record: anticancer drug in combination with beta-caryophyllene; Chou and Talalay CI; 48 h. A digest of the protocol: as §1
The next data set concerns MEL-2 (human melanoma). The description is as above. Type of data set: cell-based. The settings on record: anticancer drug in combination with beta-caryophyllene; Chou and Talalay CI; 48 h. A digest of the protocol:
as §1

A further data set concerns B16 (murine melanoma). The description is as above. Type of data set: cell-based. The settings on record: anticancer drug in combination with beta-caryophyllene; Chou and Talalay CI; 48 h. The procedure, abridged: as §1
Data set [5] deals with Lewis lung carcinoma. Briefly: In vivo potentiating effect of Formulation A on paclitaxel against Lewis lung cancer-bearing mice. The settings on record: for CTW (estimated weight) / T/C (estimated weight) / T/C (real weight) / TGI (estimated weight) / TGI (real weight) / Tumor weight (real weight): i.v. day 1 to 4, day 18. The procedure:
(§2) Cells: The Lewis lung carcinoma cell line was used (#CRL-1642, lot #4372266, ATCC). […] Cells were then harvested with up and down only. Cells were counted using a hemacytometer and resuspended in DMEM medium without SVF.
Mice: 6-weeks old C57BL/6 male mice were used Charles Rivers Inc., St-Constant, QC). […] The mice of each group (n=10) were treated with a volume of 100 μL containing saline, Formulation A (see Example 5), paclitaxel or combination of the Formulation A with paclitaxel.
(§3) Inoculation: 100 μL of a solution containing 1×10^7 cells/mL were inoculated subcutaneously in each mouse.
Treatment: Lewis lung carcinoma cells were inoculated subcutaneous on C57BL/6 mice on day 0. The potentiating effect of the Formulation A combined with paclitaxel was evaluated against Lewis lung carcinoma-bearing mice (C57BL/6). The mice of each group (n=10) were treated with a volume of 100 μL containing saline, Formulation A, paclitaxel or a combination of Formulation A with paclitaxel in doses presented in Table 10 below: The treatments were administered intravenous on day 1 to 4. The length and the width of tumor were measured with calliper on day 8 to day 18. In the end of the experiment (day 18), the tumors were extracted and weighed.
Values of p<0.05 were considered statistically significant.
(b) Tumor weight (TW): The TW of each tumor was measured on day 18 after the sacrifice of each mouse. TW values were averaged within each group. […] Values of p<0.05 were considered statistically significant.

Data set [6] is described as follows: Toxicity of Formulation A and/or Taxotere treatments (body weight) on Lewis lung cancer-bearing mice. The settings on record: for Loss of weight > 20% (n = 10): day 1 to day 8.
Method: The toxicity of the treatments described in Table 7 above was determined using the body weight of mice.
In data set [7] the test system is Lewis lung carcinoma. In words: In vivo potentiating effect of Formulation A on Taxotere against Lewis lung cancer-bearing mice. The settings on record: i.v. days 1-4, day 18. The procedure: as §2
Mice: 6-weeks old C57BL/6 male mice were used (Charles Rivers Inc., St-Constant, QC).
as §3
The mice of each group (n=10) were treated with a volume of 100 μL containing saline, Formulation A of Example 5 above (hereinafter referred to as Formulation A), Taxotere™ or a combination of Formulation A with Taxotere™ in doses presented in Table 7 below: […]
Values of p<0.05 were considered statistically significant. The length and the width of tumor were measured with calliper on day 10 to day 18.

Marks after values point to notes of the source that are not given here.

Take `CC(=O)O[C@H]1C(=O)[C@@]2(C)[C@H]([C@H](OC(=O)c3ccccc3)[C@]3(O)C[C@H](OC(=O)[C@H](O)[C@@H](NC(=O)c4ccccc4)c4ccccc4)C(C)=C1C3(C)C)[C@]1(OC(C)=O)CO[C@@H]1C[C@@H]2O` [Paclitaxel, paclitaxel]: the “Potentiating activity A-549” value in the data set with A-549 (lung cancer) is recorded as “(3) (Moderate: 0.5 < CI < 0.8 at IC50)”. The “Potentiating activity PA-1” value in the data set with PA-1 (ovary cancer) is given as “(2) (High: CI < 0.5 to IC50)”. The “Potentiating activity MDA” value in [1] is “(3) (Moderate: 0.5 < CI < 0.8 at IC50)”. Further, in the data set on DLD-1 (colon cancer), the “Potentiating activity DLD-1” value is “(2) (High: CI below 0.5 at IC50)”. Also, in the data set with MCF-7 (breast cancer), the “Potentiating activity MCF-7” value is “(1) (Very High: CI equal or below 1 at IC20 and Cl below 0.6 to IC50)”. Moreover, in data set [2], the “Potentiating activity Panc 05.04” value was “Potentiating > IC80”. For the same molecule, the “Potentiating activity U-251” value in data set [3] is “(1) (Very High: potentiating or additive activity to IC20 and CI < 0.6 to IC50)”. Besides, the “Potentiating activity GL-261” value in data set [4] is recorded as “(2) (High: CI < 0.5 to IC50)”. Moreover, in the data set with MEL-2 (human melanoma), the “Potentiating activity MEL-2” value is recorded as “(3) (Moderate: 0.5 < CI < 0.8 to IC50)”. Further, in the data set with B16 (murine melanoma), the “Potentiating activity B16” value was “(1) (Very High: potentiating or additive activity to IC20 and CI < 0.6 to IC50)”. In addition, in the data set with Lewis lung carcinoma [5] (paclitaxel 10 mg/kg), the “CTW (estimated weight)” value was 568 ± 155 mg, the “T/C (estimated weight)” value was 81%, the “T/C (real weight)” value amounted to 87% and the “TGI (estimated weight)” value is 19%. Also, in the data set on Lewis lung carcinoma [5] (paclitaxel 10 mg/kg), the “TGI (real weight)” value worked out at 13% and the “Tumor weight (real weight)” value was 410 ± 90 mg. In the data set on Lewis lung carcinoma [5] (paclitaxel 20 mg/kg), the “CTW (estimated weight)” value is given as 510 ± 274 mg, the “T/C (estimated weight)” value is reported as 73%, the “T/C (real weight)” value is given as 91% and the “TGI (estimated weight)” value is recorded as 27%. In the data set with Lewis lung carcinoma [5] (paclitaxel 20 mg/kg), the “TGI (real weight)” value was found to be 9% and the “Tumor weight (real weight)” value amounted to 420 ± 350 mg. In addition, in the data set with Lewis lung carcinoma [5] (paclitaxel 30 mg/kg), the “CTW (estimated weight)” value is 446 ± 118^c,d mg, the “T/C (estimated weight)” value is given as 64%, the “T/C (real weight)” value amounted to 81% and the “TGI (real weight)” value is on record as 19%. In addition, the “Tumor weight (real weight)” value in the data set on Lewis lung carcinoma [5] (paclitaxel 30 mg/kg) stood at 380 ± 200 mg. In addition, the “effect on tumor growth (in words)” value in the data set with Lewis lung carcinoma [5] (paclitaxel 10 and 20 mg/kg alone) is reported as “do not inhibit significantly tumor growth”.

Regarding `CC(=O)O[C@@]12CO[C@@H]1C[C@H](O)[C@@]1(C)C(=O)[C@H](O)C3=C(C)[C@@H](OC(=O)[C@H](O)[C@@H](NC(=O)OC(C)(C)C)c4ccccc4)C[C@@](O)([C@@H](OC(=O)c4ccccc4)[C@H]21)C3(C)C` [Taxotere ™, docetaxel], the “Potentiating activity Panc 05.04” value in data set [2] is given as “Potentiating > IC10”. Further, the “loss of weight (day 7) with regard to the initial weight (day 1)” value in [6] (Taxotere 5 mg/kg) is given as “about 0.55%”; in data set [6] (Taxotere 10 mg/kg) it was about 3.33%; in [6] (Taxotere 15 mg/kg), “about 13%”. Also, the figures for the “Loss of weight > 20% (n = 10)” value in data set [6] (Taxotere 5 mg/kg), in [6] (Taxotere 10 mg/kg) and in data set [6] (Taxotere 15 mg/kg) were 0, 0 and 7, respectively. For the same molecule, the CTW in the data set on Lewis lung carcinoma [7] (Taxotere 5 mg/kg) was 380 ± 116 mg; with Lewis lung carcinoma [7] (Taxotere 10 mg/kg), 346 ± 107 mg; in the data set on Lewis lung carcinoma [7] (Taxotere 15 mg/kg), 178 ± 112^c mg. Further, the T/C with Lewis lung carcinoma [7] (Taxotere 5 mg/kg) was determined as 89%; with Lewis lung carcinoma [7] (Taxotere 10 mg/kg), 81%; in the data set with Lewis lung carcinoma [7] (Taxotere 15 mg/kg), 42%. The TGI in the data set on Lewis lung carcinoma [7] (Taxotere 5 mg/kg) was 11%; with Lewis lung carcinoma [7] (Taxotere 5 mg/kg, listed as Taxotere™), “about 11%”; with Lewis lung carcinoma [7] (Taxotere 10 mg/kg), 19%; in the data set with Lewis lung carcinoma [7] (Taxotere 15 mg/kg) it was 58%; with Lewis lung carcinoma [7] (Taxotere 15 mg/kg, listed as Taxotere™), “about 58%”.

The T/C is the ratio of treated to control.

These data come from patent US20110008465A1, “SESQUITERPENE FORMULATIONS, KITS AND METHODS OF USE THEREOF” (priority 2007, published 2011).
